According to patent US11497751B2, “Modulators of Rho-associated protein kinase” (Redx Pharma PLC, priority 2018, dated 2022):

Molecular target: T1, N-terminal 6His-tagged ROCK2 catalytic domain 11-552 (Homo sapiens, UniProt O75116)
T1 construct: N-terminal 6His-tagged ROCK2 catalytic domain 11-552; 6His (N); purchased Dundee University, UK; host or cells: baculovirus expression system
Experiment: ROCK2 binding activity: ROCK2 inhibition, ADP-Glo Kinase Assay
Type: biochemical
Settings: 1.25 nM ROCK2, 100 μM long S6 peptide, 20 μM ATP; 1 hour pre-incubation; read-out: ADP-Glo kinase activity assay ROCK2 Category
In short: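 1.25 nM baculovirus-expressed ROCK2 pre-incubated 1 h with compound (1% DMSO), then 100 μM long S6 peptide and 20 μM ATP added for 1 h; 50 mM HEPES pH 7.5, 10 mM Mg acetate, 1 mM DTT. ADP-Glo luminescence; IC50 from four-parameter logistic fit.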

T1 sequence (O75116 11-552): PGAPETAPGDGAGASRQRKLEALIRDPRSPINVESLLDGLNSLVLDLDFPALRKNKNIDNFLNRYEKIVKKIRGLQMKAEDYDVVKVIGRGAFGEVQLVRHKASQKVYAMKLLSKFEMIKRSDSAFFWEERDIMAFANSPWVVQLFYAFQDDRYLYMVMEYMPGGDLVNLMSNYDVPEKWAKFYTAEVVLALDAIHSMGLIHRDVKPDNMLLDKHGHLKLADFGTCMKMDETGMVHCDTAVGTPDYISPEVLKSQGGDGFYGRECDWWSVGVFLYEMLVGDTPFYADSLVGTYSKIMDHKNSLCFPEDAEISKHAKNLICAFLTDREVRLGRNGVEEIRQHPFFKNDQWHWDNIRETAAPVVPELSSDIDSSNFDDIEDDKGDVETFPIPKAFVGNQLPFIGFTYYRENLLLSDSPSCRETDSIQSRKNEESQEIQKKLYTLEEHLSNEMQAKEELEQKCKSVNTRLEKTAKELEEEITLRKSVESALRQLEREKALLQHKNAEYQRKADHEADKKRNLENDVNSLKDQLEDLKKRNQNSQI

Row | SMILES | IC50 [nM]
1 | CCNC1(COc2ccc(-c3nnc(Nc4ccc5[nH]ncc5c4)[nH]3)cc2)COC1 [Example 229, N-[5-[4-[[3-(ethylamino)oxetan-3-yl]methoxy]phenyl]-4H-1,2,4-triazol-3-yl]-1H-indazol-5-amine] | 300 to 3000
2 | CC(C)NCCOc1ccc(-c2n[nH]c(Nc3ccc4[nH]ncc4c3)n2)cc1 [Example 230, N-[5-[4-[2-(isopropylamino)ethoxy]phenyl]-4H-1,2,4-triazol-3-yl]-1H-indazol-5-amine] | 300 to 3000
3 | Cn1nc(-c2ccc3c(c2)OCCC3O)nc1Nc1ccc2[nH]ncc2c1Cl (stereo not drawn) [Example 234, 7-[5-[(4-chloro-1H-indazol-5-yl)amino]-1-methyl-1,2,4-triazol-3-yl]chroman-4-ol] | 300 to 3000
4 | CC(C)C(=O)N1CCc2cc(-c3nc(Nc4ccc5[nH]ncc5c4Cl)n(C)n3)ccc2C1 [Example 236, 1-[6-[5-[(4-chloro-1H-indazol-5-yl)amino]-1-methyl-1,2,4-triazol-3-yl]-3,4-dihydro-1H-isoquinolin-2-yl]-2-methyl-propan-1-one] | < 300
5 | Cn1nc(-c2ccc3c(c2)CCN(C(=O)C2CC2)C3)nc1Nc1ccc2[nH]ncc2c1Cl [Example 238] | < 300
6 | Cn1nc(-c2ccc3c(c2)CCN(C(=O)CNCC(F)(F)F)C3)nc1Nc1ccc2[nH]ncc2c1Cl [Example 239] | < 300

The remaining lines, values ahead:

Row | IC50 [nM] | SMILES
7 | < 300 | COc1cc(-c2nc(Nc3ccc4[nH]ncc4c3)n(C)n2)ccc1COC(=O)NC1CCNC1 (stereo not drawn) [Example 231, [4-[5-(1H-indazol-5-ylamino)-1-methyl-1,2,4-triazol-3-yl]-2-methoxy-phenyl]methyl N-pyrrolidin-3-ylcarbamate]
8 | 300 to 3000 | COc1cc(-c2nc(Nc3ccc4[nH]ncc4c3)nn2C)ccc1OCC(=O)NC(C)C [Example 232, 2-[4-[5-(1H-indazol-5-ylamino)-2-methyl-1,2,4-triazol-3-yl]-2-methoxy-phenoxy]-N-isopropyl-acetamide]
9 | < 300 | COc1cc(-c2nc(Nc3ccc4[nH]nc(C)c4c3)n(C)n2)ccc1OCC(=O)NC(C)C [Example 233, N-isopropyl-2-[2-methoxy-4-[1-methyl-5-[(3-methyl-1H-indazol-5-yl)amino]-1,2,4-triazol-3-yl]phenoxy]acetamide]
10 | < 300 | COc1cc(-c2nc(Nc3ccc4[nH]ncc4c3)n(C)n2)ccc1OCC(=O)NC(C)C(F)(F)F (stereo not drawn) [Example 235, 2-[4-[5-(1H-indazol-5-ylamino)-1-methyl-1,2,4-triazol-3-yl]-2-methoxy-phenoxy]-N-(2,2,2-trifluoro-1-methyl-ethyl)acetamide]
11 | 300 to 3000 | Cn1nc(-c2ccc3c(c2)CCNC3)nc1Nc1ccc2[nH]ncc2c1Cl [Example 237, 4-Chloro-N-[2-methyl-5-(1,2,3,4-tetrahydroisoquinolin-6-yl)-1,2,4-triazol-3-yl]-1H-indazol-5-amine]
12 | < 300 | COc1cc(-c2nc(Nc3ccc4[nH]ncc4c3)n(C)n2)ccc1C(=O)NCC(F)(F)F [Example 240, 4-[5-(1H-indazol-5-ylamino)-1-methyl-1,2,4-triazol-3-yl]-2-methoxy-N-(2,2,2-trifluoroethyl)benzamide]
13 | < 300 | COCCNC(=O)COc1ccc(-c2nc(Nc3ccc4[nH]ncc4c3Cl)n(C)n2)cc1OC [Example 242, 2-[4-[5-[(4-chloro-1H-indazol-5-yl)amino]-1-methyl-1,2,4-triazol-3-yl]-2-methoxy-phenoxy]-N-(2-methoxyethyl)acetamide]
14 | < 300 | CC(=O)N1CCc2cc(-c3nc(Nc4ccc5[nH]ncc5c4C4CC4)n(C)n3)ccc2C1C (stereo not drawn) [Example 248, 1-[6-[5-[(4-cyclopropyl-1H-indazol-5-yl)amino]-1-methyl-1,2,4-triazol-3-yl]-1-methyl-3,4-dihydro-1H-isoquinolin-2-yl]ethanone]
15 | 3000 to 10000 | CCN1CCc2cc(-c3nc(Nc4ccc5[nH]ncc5c4C4CC4)n(C)n3)ccc2C1C (stereo not drawn) [Example 249, 4-cyclopropyl-N-[5-(2-ethyl-1-methyl-3,4-dihydro-1H-isoquinolin-6-yl)-2-methyl-1,2,4-triazol-3-yl]-1H-indazol-5-amine]
